Measured values reported in PMC5355037, “The repurposed anthelmintic mebendazole in combination with trametinib suppresses refractory NRAS^Q61K melanoma” (Oncotarget, 2017).

Legend:
pMEK1/2 S217/221 = experiment: immunoblot analysis of BAK cells; format: cell-based, human; conditions: 100 nM, combination within 30 min
Description: (§1) SDS-PAGE and transfer of separated proteins to nitrocellulose membranes were performed according to standard procedures. Membranes were stained with Ponceau S (0.1%) to verify equal loading and transfer of proteins, and then incubated with antibodies specific for pERK1/2 T202/Y204, pMEK1/2 S217/221, pBAD S-112, total BAD, total ERK1/2, total MEK1/2, BCL2 (Santa Cruz Biotech), BCLXL (Santa Cruz Biotech), cleaved PARP (Cell Signaling), or GAPDH (Abcam; loading control). Immune complexes were detected by incubation with appropriate horseradish peroxidase-conjugated antibodies to mouse or rabbit IgG (1:3000) and enhanced chemiluminescence (Pierce, Rockford, IL).

[1] = system: phosphorylation of ERK1/2 (T202/Y204); experiment: immunoblot analysis of BAK cells; format: cell-based, human; conditions: 100 nM, combination undetectable by 30 min
Description: as §1

[2] = system: BAK and BUL melanoma cells; experiment: apoptosis (fluorometric caspase-3 activity, sub-G1) and cell cycle assays; format: cell-based, human; conditions: 100 nM, all time points
Text: Cells were collected, fixed in ethanol, stained with propidium iodide (PI) to determine DNA content, and analyzed by flow cytometry (FACStar PLus; BD BioSciences, San Jose, CA).
Cytosolic extracts, derived from pooled floating and attached cells, were subjected to fluorometric caspase-3 activity assays using fluorescent tetrapeptide substrate specific for caspases-3 (Ac-DEVD-aminomethylcoumarin (AMC, Enzo Life Sciences, Ann Arbor, MI) as previously described. Free AMC, generated as a result of cleavage of the aspartate-AMC bond, was monitored over 30 min with a Wallac Victor^3 fluorometer (Perkin-Elmer, Waltham, MA) at excitation and emission wavelengths of 360 and 460 nm, respectively. The emission from each sample was plotted against time, and linear regression analysis of the initial velocity (slope) for each curve yielded the activity.

[3] = system: BAK melanoma cells xenografted into athymic mice; experiment: mouse xenografting, tumor growth; format: in vivo; conditions: gavage; for tumor growth (in words): trametinib 0.1 or 3 mg/kg/qd, alone or combined
Description: All animal experiments were performed in accordance with the guidelines and approval of Georgetown University Animal Care and Use Committee. Athymic 6-week old male mice (Taconic) were acclimated to the Division of Comparative Medicine at Georgetown University a week prior to xenografting. 3×10^6 melanoma cells were resuspended in Matrigel and injected subcutaneously into the hind flanks of athymic mice using a 22-gauge needle. […] Drugs were administered by oral gavage. Each testing group contained three to five mice in each of four experiments. Each tumor from each treatment group was measured on indicated days, and all tumor sizes were then normalized to their size at day 0 of drug treatment. All data from all four experiments was then combined for statistical analysis, to compare every mouse from each treatment group. […] The results were expressed as the mean (±SD) of tumor volume in each group. After five weeks, mice were euthanized; tumors extracts were derived for immunoblot analysis. […] This yields a similar constant to that calculated by Mosteller for humans: BSA (m^2) = [[…] (kg)]*60 [36]. […] For high dose trametinib, this is equivalent to 14.4 mg/person/day. […] By comparison, patient doses range from 100 mg one time (pinworms) to 200 mg/kg per day for 12 weeks ([…] disease in children) including doses up to 6 g per day. […] The results shown are based on a single experiment in triplicate, and repeated in three independent experiments with essentially the same results. […] For tumor sizes, the rate-based T/C (tumor/control) test of significance was used as described, using the author's template. The results are representative of 3 independent experiments with reproducible results. For determining synergism, the combination index (τ) was calculated from single dose-response curves and combination experiments as τ = xA/XA+xB/XB, in which, for a given cytotoxic effect, xA and xB are the concentrations of drugs A and B in the combination, and XA and XB are the concentrations of drugs A and B that achieve the same cytotoxic effect when given alone.

[4] = system: BAK, BUL and STU melanoma cells; experiment: XTT cell viability assay, statements for all three lines; format: cell-based, human; conditions: 72 h; for concentration at which significant growth inhibition was observed: 2-way ANOVA; for cytotoxic activity as single agent (in words): all three cell lines
Description: MBZ, dabrafenib, and trametinib were purchased from Sigma-Aldrich and ActiveBiochem, respectively. 5 × 10^3 viable cells per well were plated in 96-well dishes and allowed to recover for 12 h prior to drug treatment. Cells in triplicate wells were treated for up to 72 h (based on initial time course experiments showing maximal effects at that time point) with different concentrations of trametinib, dabrafenib, or MBZ alone, or a combination of MBZ and trametinib. Negative controls were exposed to vehicle DMSO in the same volumes. Cell viability was assessed by an XTT assay, according to a manufacturer's specifications (Biotium Inc). Reduced XTT was measured by absorbance at 490 nm on a PerkinElmer Victor3 plate reader. Cells exposed to detergent served as a positive control.
The results shown are based on a single experiment in triplicate, and repeated in three independent experiments with essentially the same results. Data from triplicates of treatment groups were compared using Student's t-test or 2-way ANOVA (multiple comparisons) for significance, and p values of < 0.05 were considered statistically significant. For tumor sizes, the rate-based T/C (tumor/control) test of significance was used as described, using the author's template. The results are representative of 3 independent experiments with reproducible results. For determining synergism, the combination index (τ) was calculated from single dose-response curves and combination experiments as τ = xA/XA+xB/XB, in which, for a given cytotoxic effect, xA and xB are the concentrations of drugs A and B in the combination, and XA and XB are the concentrations of drugs A and B that achieve the same cytotoxic effect when given alone. A τ value of 1 indicates additivity, τ less than 1 indicates synergy, and τ greater than 1 indicates antagonism.

[5] = system: MEK1/2 and ERK1/2 phosphorylation; experiment: immunoblot analysis of tumor xenograft extracts; format: in vivo, mice; conditions: tumors collected at termination; combination = HDT+MBZ
Description: All animal experiments were performed in accordance with the guidelines and approval of Georgetown University Animal Care and Use Committee. Athymic 6-week old male mice (Taconic) were acclimated to the Division of Comparative Medicine at Georgetown University a week prior to xenografting. 3×10^6 melanoma cells were resuspended in Matrigel and injected subcutaneously into the hind flanks of athymic mice using a 22-gauge needle. […] Drugs were administered by oral gavage. Each testing group contained three to five mice in each of four experiments. Each tumor from each treatment group was measured on indicated days, and all tumor sizes were then normalized to their size at day 0 of drug treatment. All data from all four experiments was then combined for statistical analysis, to compare every mouse from each treatment group. […] The results were expressed as the mean (±SD) of tumor volume in each group. After five weeks, mice were euthanized; tumors extracts were derived for immunoblot analysis. SDS-PAGE and transfer of separated proteins to nitrocellulose membranes were performed according to standard procedures. […] Immune complexes were detected by incubation with appropriate horseradish peroxidase-conjugated antibodies to mouse or rabbit IgG (1:3000) and enhanced chemiluminescence (Pierce, Rockford, IL).

PDGFRA = system: PDGFRA; parameters: method as in PMID 26234515, PMID 22780961, PMID 24135855; conditions: cited from earlier work
MEK2 = MEK2 (Homo sapiens, UniProt P36507); experiment: in vitro kinase assay, percent control; format: binding; conditions: Kinase Target MEK2
Sequence of MEK2 (P36507 whole entry): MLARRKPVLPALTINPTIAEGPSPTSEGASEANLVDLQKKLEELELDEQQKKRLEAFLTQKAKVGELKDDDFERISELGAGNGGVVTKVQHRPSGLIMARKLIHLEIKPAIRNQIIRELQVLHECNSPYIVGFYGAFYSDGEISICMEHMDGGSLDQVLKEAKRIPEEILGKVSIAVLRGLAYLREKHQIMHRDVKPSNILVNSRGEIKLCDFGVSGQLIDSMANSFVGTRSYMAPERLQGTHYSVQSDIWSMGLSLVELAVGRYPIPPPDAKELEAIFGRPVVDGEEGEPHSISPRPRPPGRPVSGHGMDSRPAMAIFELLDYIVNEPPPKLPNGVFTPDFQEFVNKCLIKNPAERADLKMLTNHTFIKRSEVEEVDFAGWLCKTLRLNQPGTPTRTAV

[6] = parameters: method as in PMID 7094986; conditions: chronic oral MBZ 10 mg/kg/day, cited from earlier work
VEGFR2 = VEGFR2 (Homo sapiens, UniProt P35968); experiment: in vitro kinase assay, percent control and binding affinity; conditions: Kinase Target VEGFR2
Sequence of VEGFR2 (P35968 20-1356): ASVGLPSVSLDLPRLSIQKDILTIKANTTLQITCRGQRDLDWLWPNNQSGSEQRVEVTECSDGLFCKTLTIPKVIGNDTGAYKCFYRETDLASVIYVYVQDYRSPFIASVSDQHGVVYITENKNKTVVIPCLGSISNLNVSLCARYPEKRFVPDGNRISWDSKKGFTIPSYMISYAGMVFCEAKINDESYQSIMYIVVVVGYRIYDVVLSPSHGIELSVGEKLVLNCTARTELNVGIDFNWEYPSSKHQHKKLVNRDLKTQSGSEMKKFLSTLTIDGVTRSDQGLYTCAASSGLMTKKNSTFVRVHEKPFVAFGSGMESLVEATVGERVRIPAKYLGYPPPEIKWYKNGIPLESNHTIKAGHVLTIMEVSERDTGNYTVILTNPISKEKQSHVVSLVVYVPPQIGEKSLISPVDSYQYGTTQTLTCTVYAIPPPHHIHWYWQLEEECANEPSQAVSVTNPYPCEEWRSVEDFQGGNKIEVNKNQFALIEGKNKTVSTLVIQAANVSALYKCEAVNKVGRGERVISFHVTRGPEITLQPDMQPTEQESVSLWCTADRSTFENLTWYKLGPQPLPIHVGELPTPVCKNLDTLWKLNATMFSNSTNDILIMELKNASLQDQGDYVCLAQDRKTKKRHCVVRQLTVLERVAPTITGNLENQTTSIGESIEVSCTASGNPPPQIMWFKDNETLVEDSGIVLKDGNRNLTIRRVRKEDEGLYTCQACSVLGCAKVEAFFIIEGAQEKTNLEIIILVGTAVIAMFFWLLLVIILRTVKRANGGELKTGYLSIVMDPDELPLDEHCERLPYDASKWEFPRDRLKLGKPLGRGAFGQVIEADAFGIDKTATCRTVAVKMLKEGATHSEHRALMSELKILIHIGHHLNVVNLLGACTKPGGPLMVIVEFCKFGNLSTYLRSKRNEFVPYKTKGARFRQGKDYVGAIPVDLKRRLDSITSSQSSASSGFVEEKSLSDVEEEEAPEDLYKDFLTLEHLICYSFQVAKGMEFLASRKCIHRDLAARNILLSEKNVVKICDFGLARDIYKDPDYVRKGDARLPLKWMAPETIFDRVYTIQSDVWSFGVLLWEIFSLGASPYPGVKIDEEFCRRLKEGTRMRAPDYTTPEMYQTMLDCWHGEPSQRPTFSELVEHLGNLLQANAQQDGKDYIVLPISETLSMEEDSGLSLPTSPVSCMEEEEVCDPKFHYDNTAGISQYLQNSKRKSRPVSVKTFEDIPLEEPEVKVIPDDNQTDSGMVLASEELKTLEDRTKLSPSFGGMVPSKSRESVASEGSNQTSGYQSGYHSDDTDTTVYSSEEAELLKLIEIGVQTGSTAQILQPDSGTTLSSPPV

PDGFRB = system: PDGFRB; parameters: method as in PMID 26234515, PMID 22780961, PMID 24135855; conditions: cited from earlier work
human tubulin = target: human tubulin; parameters: method as in PMID 7388055; conditions: much lower than for parasite tubulin; cited from earlier work
MEK1 = MEK1 (Homo sapiens, UniProt Q02750); experiment: in vitro kinase assay, percent control; format: binding; conditions: Kinase Target MEK1
Sequence of MEK1 (Q02750 whole entry): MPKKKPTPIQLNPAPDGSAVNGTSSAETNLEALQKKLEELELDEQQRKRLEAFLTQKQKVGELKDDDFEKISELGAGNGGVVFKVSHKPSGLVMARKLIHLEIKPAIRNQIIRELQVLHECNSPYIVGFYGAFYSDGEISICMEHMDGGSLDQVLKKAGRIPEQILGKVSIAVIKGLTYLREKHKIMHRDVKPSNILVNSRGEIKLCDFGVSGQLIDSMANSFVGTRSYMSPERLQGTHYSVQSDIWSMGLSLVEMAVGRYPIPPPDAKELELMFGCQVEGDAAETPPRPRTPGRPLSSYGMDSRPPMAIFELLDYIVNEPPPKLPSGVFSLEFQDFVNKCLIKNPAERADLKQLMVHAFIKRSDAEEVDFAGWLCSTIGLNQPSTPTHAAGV

roundworm tubulin = target: roundworm tubulin; parameters: method as in PMID 7388055; conditions: nematode and cestode parasite tubulin; read-out: apparent binding affinity for tubulin; cited from earlier work
BRAF = BRAF (Homo sapiens, UniProt P15056); experiment: in vitro kinase assay, percent control and binding affinity
Sequence of BRAF (P15056 whole entry): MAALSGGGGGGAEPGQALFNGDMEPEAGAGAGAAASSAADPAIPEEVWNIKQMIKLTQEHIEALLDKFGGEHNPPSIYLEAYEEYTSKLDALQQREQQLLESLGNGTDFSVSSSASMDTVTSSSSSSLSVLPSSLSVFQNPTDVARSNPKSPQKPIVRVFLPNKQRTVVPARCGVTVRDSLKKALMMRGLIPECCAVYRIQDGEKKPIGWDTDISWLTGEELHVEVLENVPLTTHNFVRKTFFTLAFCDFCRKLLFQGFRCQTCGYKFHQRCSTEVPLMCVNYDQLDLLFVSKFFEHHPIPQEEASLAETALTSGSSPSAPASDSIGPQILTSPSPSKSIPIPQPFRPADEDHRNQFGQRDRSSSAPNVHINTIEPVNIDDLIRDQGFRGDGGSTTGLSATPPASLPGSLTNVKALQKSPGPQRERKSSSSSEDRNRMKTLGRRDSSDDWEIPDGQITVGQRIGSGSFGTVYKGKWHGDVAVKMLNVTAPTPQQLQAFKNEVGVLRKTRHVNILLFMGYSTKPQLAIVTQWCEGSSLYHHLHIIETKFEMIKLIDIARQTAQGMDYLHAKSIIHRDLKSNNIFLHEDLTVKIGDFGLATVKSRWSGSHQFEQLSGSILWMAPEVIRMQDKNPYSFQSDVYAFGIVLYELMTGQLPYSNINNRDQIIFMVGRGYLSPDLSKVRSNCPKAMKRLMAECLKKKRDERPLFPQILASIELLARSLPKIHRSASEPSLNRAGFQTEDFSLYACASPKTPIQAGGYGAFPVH

VEGFR-2 = system: VEGFR-2; parameters: method as in PMID 26234515, PMID 22780961, PMID 24135855; conditions: cited from earlier work
BRAF (V600E) = BRAF (V600E) (Homo sapiens, UniProt P15056, V600E); experiment: in vitro kinase assay, percent control and binding affinity; conditions: Kinase Target BRAF (V600E)
Sequence of BRAF (V600E) (P15056 whole entry V600E): as the sequence (P15056 whole entry) above, with V600E counted along it

C-RAF = C-RAF (Homo sapiens, UniProt P04049); experiment: in vitro kinase assay, percent control; format: binding; conditions: Kinase Target C-RAF
Sequence of C-RAF (P04049 whole entry): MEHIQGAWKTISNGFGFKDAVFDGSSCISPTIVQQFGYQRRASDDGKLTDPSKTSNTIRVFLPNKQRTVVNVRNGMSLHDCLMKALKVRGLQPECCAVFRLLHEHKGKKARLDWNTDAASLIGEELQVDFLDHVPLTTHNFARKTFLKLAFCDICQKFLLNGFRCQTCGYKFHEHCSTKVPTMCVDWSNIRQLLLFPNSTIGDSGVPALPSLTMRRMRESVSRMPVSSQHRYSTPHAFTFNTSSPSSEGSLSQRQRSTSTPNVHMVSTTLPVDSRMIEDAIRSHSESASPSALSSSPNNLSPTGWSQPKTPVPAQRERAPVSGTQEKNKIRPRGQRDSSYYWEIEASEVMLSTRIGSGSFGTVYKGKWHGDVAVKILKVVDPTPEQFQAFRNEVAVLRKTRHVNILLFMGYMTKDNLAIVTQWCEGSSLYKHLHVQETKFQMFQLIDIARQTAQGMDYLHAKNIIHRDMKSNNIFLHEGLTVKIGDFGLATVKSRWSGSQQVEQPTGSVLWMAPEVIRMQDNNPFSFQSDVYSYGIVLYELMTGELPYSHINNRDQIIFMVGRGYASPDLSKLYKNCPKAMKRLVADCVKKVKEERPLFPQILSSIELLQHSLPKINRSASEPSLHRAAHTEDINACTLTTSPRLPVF

CC(=O)Nc1cccc(-n2c(=O)n(C3CC3)c(=O)c3c(Nc4ccc(I)cc4F)n(C)c(=O)c(C)c32)c1 [trametinib]
pMEK1/2 S217/221 activating phosphorylation (in words) (pMEK1/2 S217/221): not inhibited
activating phosphorylation of ERK1/2 (T202/Y204) (in words) [1]: diminished
percentage of cells in S phase (in words) [2]: decreased
Rate-based T/C ([3]; HDT vs Vehicle, high dose trametinib 3 mg/kg/qd): 0.73
Rate-based T/C ([3]; LDT vs Vehicle, low dose trametinib 0.1 mg/kg/qd): 0.93
tumor growth (in words) ([3]; MBZ 40 mg/kg/qad): did not show any significant tumor-suppressive effects
concentration at which significant growth inhibition was observed [4]: ≥ 1 nM
MEK1/2 and ERK1/2 phosphorylation in tumors (in words) [5]: ability to suppress

CC(C)(C)c1nc(-c2cccc(NS(=O)(=O)c3c(F)cccc3F)c2F)c(-c2ccnc(N)n2)s1 [dabrafenib]
concentration at which significant growth inhibition was observed [4]: ≥ 1000 nM
cytotoxic activity as single agent (in words) [4]: resistance to dabrafenib except at the highest doses tested

COC(=O)Nc1nc2ccc(C(=O)c3ccccc3)cc2[nH]1 [MBZ, methyl N-[6-(benzoyl)-1H-benzimidazol-2-yl] carbamate]
pMEK1/2 S217/221 activating phosphorylation (in words) (pMEK1/2 S217/221): not inhibited
activating phosphorylation of ERK1/2 (T202/Y204) (in words) [1]: diminished
concentration at which MBZ inhibits PDGFRA (PDGFRA): 820 nM
remaining activity at 10 µM (MEK2): 12%
peak plasma level, variability between patients [6]: 0.34 to 1.69 µM
mean peak plasma level ([6]; patients): 470 nM
remaining activity at 10 µM (VEGFR2): 20%
concentration at which MBZ inhibits PDGFRB (PDGFRB): 660 nM
affinity for human tubulin (human tubulin): µM range
remaining activity at 10 µM (MEK1): 16%
Kd (roundworm tubulin): 19 nM
remaining activity at 10 µM (BRAF; 10 μM, Kinase Target BRAF): 7.8%
Kd (BRAF; Kinase Target BRAF (BRAF^WT)): 230 nM
concentration at which MBZ inhibits VEGFR-2 (VEGFR-2): 3.6 µM
Rate-based T/C ([3]; MBZ vs Vehicle, MBZ 40 mg/kg/qad): 1.04
tumor growth (in words) ([3]; MBZ 40 mg/kg/qad): did not work as a monotherapy
concentration at which significant growth inhibition was observed [4]: ≥ 10 nM
cytotoxic activity as single agent (in words) [4]: weak cytotoxic activity
remaining activity at 10 µM (BRAF (V600E); 10 μM): 3.2%
Kd (BRAF (V600E)): 210 nM
remaining activity at 10 µM (C-RAF): 23%
MEK1/2 and ERK1/2 phosphorylation in tumors (in words) [5]: ability to suppress
